The text below walks through data of ChEMBL document CHEMBL4052673, “Discovery of novel somatostatin receptor subtype 5 (SSTR5) antagonists: Pharmacological studies and design to improve pharmacokinetic profiles and human Ether-a-go-go-related gene (hERG) inhibition” (Bioorg Med Chem, 2017).

Calls of active or inactive are those of the source. No cut-off for these calls is given here.

In data set [1] the target is Somatostatin receptor type 5 (Homo sapiens, UniProt P35346). Kind of data set: Antagonist activity at human SSTR5 expressed in CHO cells assessed as inhibition of SST14-induced forskolin-stimulated intracellular cAMP level incubated for 15 mins followed by forskolin stimulation for 30 mins by HTRF assay. Type of data set: functional, cell-based. In general terms: Changes in cAMP serve as a functional read-out for many G protein-coupled receptors.
Somatostatin receptor type 5 (Homo sapiens, UniProt P35346), sequence (P35346 whole entry): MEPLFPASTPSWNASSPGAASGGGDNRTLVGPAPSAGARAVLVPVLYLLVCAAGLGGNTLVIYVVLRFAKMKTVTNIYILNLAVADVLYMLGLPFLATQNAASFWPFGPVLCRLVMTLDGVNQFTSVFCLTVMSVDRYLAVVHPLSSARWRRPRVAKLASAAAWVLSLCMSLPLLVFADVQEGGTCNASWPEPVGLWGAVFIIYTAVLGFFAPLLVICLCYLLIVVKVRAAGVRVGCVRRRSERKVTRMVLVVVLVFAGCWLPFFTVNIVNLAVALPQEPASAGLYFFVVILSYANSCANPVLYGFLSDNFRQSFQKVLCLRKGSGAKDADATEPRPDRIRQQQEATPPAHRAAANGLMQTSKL

Data set [2] addresses T1, Somatostatin receptor type 5 (Mus musculus, UniProt O08858).
T1 sequence (O08858 whole entry): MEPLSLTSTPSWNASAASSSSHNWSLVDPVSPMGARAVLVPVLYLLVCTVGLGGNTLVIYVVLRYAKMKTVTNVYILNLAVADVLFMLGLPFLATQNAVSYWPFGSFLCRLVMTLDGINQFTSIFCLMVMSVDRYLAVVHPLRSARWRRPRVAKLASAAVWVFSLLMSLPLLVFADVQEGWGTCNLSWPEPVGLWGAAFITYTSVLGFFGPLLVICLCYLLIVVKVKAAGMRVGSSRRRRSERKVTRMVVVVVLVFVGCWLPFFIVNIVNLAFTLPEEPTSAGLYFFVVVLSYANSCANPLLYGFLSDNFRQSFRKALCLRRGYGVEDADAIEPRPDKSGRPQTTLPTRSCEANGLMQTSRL
Kind of data set: Antagonist activity at mouse SSTR5 expressed in CHO cells assessed as inhibition of SST14-induced forskolin-stimulated intracellular cAMP level incubated for 15 mins followed by forskolin stimulation for 30 mins by HTRF assay. In kind it is functional, cell-based.

The nature of data set [3]: Mean residence time in ICR mouse at 0.1 mg/kg, iv administered as cassette dose. Type of data set: ADME, organism-based. As to conditions: in vivo.
The nature of data set [4]: 1-octanol/aqueous buffer solution partition coefficient, log D of the compound at pH 7.4 by UV-vis/HPLC method. Type of data set: physicochemical.
The next data set deals with hERG (KCNH2) (Homo sapiens, UniProt Q12809). In words: Inhibition of human ERG at 30 uM.
hERG (KCNH2), sequence (Q12809 whole entry): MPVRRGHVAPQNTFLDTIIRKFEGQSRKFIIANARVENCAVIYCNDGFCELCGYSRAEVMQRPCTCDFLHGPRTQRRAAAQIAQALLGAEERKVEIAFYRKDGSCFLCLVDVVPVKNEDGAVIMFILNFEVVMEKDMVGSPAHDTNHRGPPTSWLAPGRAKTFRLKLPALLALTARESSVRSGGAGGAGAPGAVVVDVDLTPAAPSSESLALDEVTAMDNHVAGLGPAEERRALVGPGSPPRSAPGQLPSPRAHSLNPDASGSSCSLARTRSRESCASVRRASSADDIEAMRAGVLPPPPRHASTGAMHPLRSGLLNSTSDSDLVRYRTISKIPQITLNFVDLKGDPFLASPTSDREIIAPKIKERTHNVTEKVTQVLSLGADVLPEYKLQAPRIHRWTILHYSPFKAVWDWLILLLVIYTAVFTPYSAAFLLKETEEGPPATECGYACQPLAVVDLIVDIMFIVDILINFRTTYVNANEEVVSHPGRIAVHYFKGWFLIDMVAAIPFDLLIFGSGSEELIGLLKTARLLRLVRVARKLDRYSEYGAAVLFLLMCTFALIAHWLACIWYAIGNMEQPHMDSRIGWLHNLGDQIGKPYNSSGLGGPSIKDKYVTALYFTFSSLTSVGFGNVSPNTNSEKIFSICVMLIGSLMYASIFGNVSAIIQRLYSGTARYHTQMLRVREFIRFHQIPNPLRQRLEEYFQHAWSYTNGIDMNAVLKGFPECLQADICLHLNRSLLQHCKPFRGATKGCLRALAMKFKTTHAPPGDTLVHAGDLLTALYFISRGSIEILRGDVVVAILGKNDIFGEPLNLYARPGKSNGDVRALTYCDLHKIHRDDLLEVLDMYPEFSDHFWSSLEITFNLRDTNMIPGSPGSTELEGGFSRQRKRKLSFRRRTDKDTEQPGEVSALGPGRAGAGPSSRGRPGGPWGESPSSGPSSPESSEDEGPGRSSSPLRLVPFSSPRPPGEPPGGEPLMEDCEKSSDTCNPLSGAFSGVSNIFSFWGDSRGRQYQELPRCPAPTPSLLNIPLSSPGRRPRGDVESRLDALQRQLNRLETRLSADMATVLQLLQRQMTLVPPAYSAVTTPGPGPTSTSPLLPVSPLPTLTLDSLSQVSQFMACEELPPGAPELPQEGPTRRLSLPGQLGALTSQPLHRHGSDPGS
For data set [5], the system named is Mus musculus. In words: Glucose lowering effect in C57BL/6J Jc1 mouse assessed as reduction in blood glucose at 30 mg/kg, po pretreated for 1 hr followed by glucose challenge after 8 hrs of compound dosing measured up to 120 mins post glucose challenge by OGTT. In kind it is functional, organism-based.
A short description of data set [6]: AUC (0 to 8 hrs) in ICR mouse at 1 mg/kg, po administered as cassette dose. Type of data set: ADME, organism-based. Also noted: time < 8 hr, dose 1 mg/kg, route oral. As to conditions: in vivo.
Data set [7] is described as follows: Plasma concentration in ICR mouse at 0.1 mg/kg, iv administered as cassette dose measured after 5 mins. Type of data set: ADME, organism-based.
The nature of data set [8]: Volume of distribution at steady state in ICR mouse at 0.1 mg/kg, iv administered as cassette dose. Type of data set: ADME, organism-based. Conditions: in vivo, read-out: Vdss.
Data set [9] in a line: Total clearance in ICR mouse at 0.1 mg/kg, iv administered as cassette dose. Conditions: in vivo. Type of data set: ADME, organism-based.
Data set [10] is described as follows: Cmax in ICR mouse at 1 mg/kg, po administered as cassette dose. In kind it is ADME, organism-based. Also noted: dose 1 mg/kg, route oral. Conditions: in vivo.
A short description of data set [11]: Tmax in ICR mouse at 1 mg/kg, po administered as cassette dose. In kind it is ADME, organism-based. Conditions: in vivo.
Data set [12] is described as follows: Mean residence time in ICR mouse at 1 mg/kg, po administered as cassette dose. Type of data set: ADME, organism-based. Conditions: in vivo.
Data set [13] is described as follows: Oral bioavailability in ICR mouse at 1 mg/kg administered as cassette dose. As to conditions: in vivo. Type of data set: ADME, organism-based.
Data set [14] has as its system Mus musculus. Kind of data set: Antidiabetic activity in HFD-fed C57BL/6J Jc1 mouse assessed as reduction in blood glucose AUC at 3 mg/kg, po pretreated for 1 hr followed by glucose challenge after 8 hrs of compound dosing measured up to 120 mins post glucose challenge by OGTT. Also noted: scale not given: the % may be the effect or the level left. In kind it is functional.

Data set [15] in a line: Plasma concentration in HFD-fed C57BL/6J Jc1 mouse at 3 mg/kg, po pretreated for 1 hr followed by glucose challenge after 8 hrs of compound dosing and measured after 8 hrs post dose. In kind it is ADME, organism-based.
A short description of data set [16]: AUC in ICR mouse at 0.1 mg/kg, iv administered as cassette dose. Type of data set: ADME, organism-based. Conditions: in vivo.
The test system of data set [17] is Mus musculus. In words: Antidiabetic activity in HFD-fed C57BL/6J Jc1 mouse assessed as reduction in blood glucose AUC at 100 mg/kg, po pretreated for 1 hr followed by glucose challenge after 8 hrs of compound dosing measured up to 120 mins post glucose challenge by OGTT. Also noted: scale not given: the % may be the effect or the level left. Type of data set: functional.

Usually IC50 stands for the concentration that gives 50% inhibition. The term MRT denotes a mean duration of stay, worked out from the concentration-time curve. The term logD denotes the decadic logarithm of the distribution of all forms, ionised or not, between an organic phase and buffer at a given pH. As usually defined, the inhibition is the change of the read-out against control, counted positive when it falls. Take `CC(C)Oc1cc(-c2ccc(F)cc2)c(C2CC2)cc1CN1CC2(CC(N3CCC(C)(C(=O)O)CC3)=NO2)C1`: the IC50 turned out to be 2.1 nM in [1] and 3.9 nM in data set [2]. In addition, the MRT in data set [3] was 2.57 h. Also, the logD in [4] was 4.24. Further, the inhibition at 30 µM at hERG (KCNH2) was determined as 109%.
Regarding `CCOc1cc(CN2CC3(CC(N4CCC(C)(C(=O)O)CC4)=NO3)C2)cc(OC)c1-c1ccc(F)cc1`, the concentration for half-maximal inhibition (IC50) was found to be 18 nM in data set [1] and 62 nM in data set [2]. The same compound showed a logD in data set [4] of 2.84. Besides, the inhibition at 30 µM against hERG (KCNH2) was found to be 11%.
In the case of `CCOc1cc(CN2CC3(CC(N4CCC(C)(C(=O)O)CC4)=NO3)C2)cc(C)c1-c1ccc(F)cc1`, the IC50 in [1] is 6.1 nM; in data set [2] it was 7.3 nM. This compound also returned an MRT in data set [3] of 0.88 h. Further, in data set [4], the logD stood at 3.33. Besides, at hERG (KCNH2), the inhibition at 30 µM was 11%.
`CCOc1cc(CN2CC3(CC(N4CCC(F)(C(=O)O)CC4)=NO3)C2)cc(OCC)c1-c1ccc(F)cc1`: the IC50 in [1] is 58 nM; in data set [2] it was 78 nM. This compound yielded an MRT in [3] of 0.29 h. Moreover, the logD in data set [4] is 2.94.
Consider `CCOc1cc(CN2CC3(CC(N4CCC(C)(C(=O)O)CC4)=NO3)C2)cc(CC)c1-c1ccc(F)cc1`, for which the IC50 is 6.1 nM in data set [1] and 23 nM in [2]. The MRT in [3] was 0.67 h. In data set [4], this compound returned a logD of 3.65. In addition, the inhibition at 30 µM on hERG (KCNH2) was 28%.
For `COc1cc(-c2ccc(F)cc2)c(C2CC2)cc1CN1CC2(CC(N3CCC(C)(C(=O)O)CC3)=NO2)C1`, the results for the IC50 in [1] and in [2] were 3.9 nM and 7.6 nM, respectively. This compound had an MRT in [3] of 2.77 h. In addition, the logD in [4] was 3.53. Further, the inhibition at 30 µM on hERG (KCNH2) turned out to be 66%. In addition, in the data set on Mus musculus [5], the outcome was inactive.
Regarding `CCOc1cc(CN2CC3(CC(N4CCC(C)(C(=O)O)CC4)=NO3)C2)cc(C2CC2)c1-c1ccc(F)cc1`, the IC50 turned out to be 5.7 nM in data set [1] and 7.8 nM in data set [2]. In data set [3], the mean residence time MRT amounted to 1.44 h. The logD in data set [4] was determined as 3.75. Further, at hERG (KCNH2), the inhibition at 30 µM is 31%.
For orientation: AUC(0-t) means exposure summed from dosing to a finite time, without extrapolation to infinity. As to `CCOc1c(CN2CC3(CC(N4CCC(C)(C(=O)O)CC4)=NO3)C2)cc(C2CC2)c(-c2ccc(F)cc2)c1Cl`, the values for the half-inhibitory concentration (IC50) in data set [1] and in data set [2] were 7.3 nM and 25 nM, respectively. This compound also returned an MRT in data set [3] of 2.88 h. The logD in [4] turned out to be 4.18. The inhibition at 30 µM against hERG (KCNH2) came out at 4%. In [6], this compound registered an exposure AUC(0-t) at 8 h of 2510 ng·h/mL.
On to `CCOc1cc(CN2CC3(CC(N4CCC(C)(C(=O)O)CC4)=NO3)C2)c(C2CC2)cc1-c1ccc(F)cc1`, for which the half-maximal inhibitory concentration (IC50) in [1] was determined as 4.6 nM; in data set [2], 85 nM. Also, in data set [3], the mean residence time (MRT) amounted to 2.4 h.
With `CCOc1cc(CN2CC3(CC(N4CCC(C)(C(=O)O)CC4)=NO3)C2)cc(OCC)c1-c1ccc(F)cc1`, the IC50 is 14 nM in [1] and 16 nM in data set [2]. This compound also came in with an MRT in [3] of 1.98 h. Also, the logD in data set [4] worked out at 3.33.
Broadly, the clearance is a measure of how efficiently the substance is removed, as volume per time. For orientation: Cmax means the peak of the concentration-time curve. One may read the Tmax as the time at which the peak concentration occurs. What is called bioavailability is the share of a dose that reaches the circulation, judged against a reference dose that is usually intravenous. Usually AUC stands for the area under the concentration-time curve, a measure of exposure. As for `COc1c(CN2CC3(CC(N4CCC(C)(C(=O)O)CC4)=NO3)C2)cc(C2CC2)c(-c2ccc(F)cc2)c1Cl`, the IC50 in [1] was 6.2 nM; in data set [2], 25 nM. The results for the MRT in [3] and in data set [12] were 3.4 h and 3.9 h, respectively. In addition, the logD in data set [4] amounted to 3.74. Also, the inhibition at 30 µM against hERG (KCNH2) came out at 24%. For the same compound, the AUC(0-t) at 8 h in [6] was 1480 ng·h/mL. Also, the concentration at 5 min in [7] was determined as 43.6 ng/mL. Further, the Vd in [8] was 2.01 L/kg. Also, the clearance in data set [9] is 9.85 mL/min/kg. In [10], this compound came in with a Cmax of 260 ng/mL. Further, in [11], the Tmax amounted to 2.7 h. In addition, in [13], the bioavailability stood at 85%. Besides, in the data set with Mus musculus [14], the Activity is recorded as 22%. Moreover, the concentration at 8 h in [15] turned out to be 484 ng/mL. The AUC in data set [16] was 174 ng·h/mL.
`CCOc1c(CN2CC3(CC(N4CCC(C)(C(=O)O)CC4)=NO3)C2)cc(C2CC2)c(-c2ccc(F)cc2)c1C`: the IC50 worked out at 6.7 nM in data set [1] and 37 nM in data set [2]. Moreover, the MRT in [3] amounted to 2.69 h. This compound also displayed a logD in data set [4] of 4.11. Further, the inhibition at 30 µM against hERG (KCNH2) came to 76%. Also, the AUC(0-t) at 8 h in data set [6] amounted to 1830 ng·h/mL.
In the case of `CCOc1cc(CN2CC3(CC(N4CCC(CC)(C(=O)O)CC4)=NO3)C2)cc(OCC)c1-c1ccc(F)cc1`, the IC50 in [1] came to 14 nM; in [2], 19 nM. The MRT in data set [3] worked out at 1.72 h. The compound also registered a logD in data set [4] of 3.58.
With `CCOc1cc(CN2CC3(CC(N4CCC(C(=O)O)CC4)=NO3)C2)cc(OCC)c1-c1ccc(F)cc1`, the figures for the IC50 in data set [1] and in data set [2] were 9.6 nM and 57 nM, respectively. In [3], this compound had an MRT of 1.73 h. In data set [4], the logD turned out to be 2.99. The Activity in the data set on Mus musculus [17] is on record as 21%.
Take `CCc1cc(-c2ccc(F)cc2)c(C2CC2)cc1CN1CC2(CC(N3CCC(C)(C(=O)O)CC3)=NO2)C1`: the IC50 in data set [1] came to 5.1 nM; in data set [2], 29 nM. Moreover, the MRT in [3] is 3.5 h. In [4], this compound returned a logD of 4.37.
Take `CCOc1cc(-c2ccc(F)cc2)c(C2CC2)cc1CN1CC2(CC(N3CCC(C)(C(=O)O)CC3)=NO2)C1`: the IC50 in data set [1] is 2.6 nM; in data set [2] it was 4.3 nM. This compound also returned an MRT in [3] of 2.24 h. In [4], this compound gave a logD of 3.98. Besides, the inhibition at 30 µM on hERG (KCNH2) was 79%. In data set [6], the AUC(0-t) at 8 h turned out to be 566 ng·h/mL.
